Experimental data from US20220169629A1, “PESTICIDALLY ACTIVE DIAZINE-AMIDE COMPOUNDS” (SYNGENTA CROP PROTECTION AG, priority 2019, published 2022).

Experiments:
Format in all cases: in vivo
[1] = tested on: Diabrotica balteata (corn root worm); assay: Example B1: Diabrotica balteata (corn root worm), sprayed maize sprouts, L2 larvae; conditions: 96 h, application rate of 200 ppm, 4 days after infestation, L2 larvae on maize sprouts, read-out: control in at least one of the two categories (mortality or growth inhibition)
Procedure: Example B1: Diabrotica Balteata (Corn Root Worm)
Maize sprouts placed onto an agar layer in 24-well microtiter plates were treated with aqueous test solutions prepared from 10′000 ppm DMSO stock solutions by spraying. After drying, the plates were infested with L2 larvae (6 to 10 per well). The samples were assessed for mortality and growth inhibition in comparison to untreated samples 4 days after infestation.

[2] = tested on: Chilo suppressalis (striped rice stemborer); assay: Example B4: Chilo suppressalis (striped rice stemborer), artificial diet, L2 larvae; conditions: 144 h, application rate of 200 ppm, 6 days after infestation, L2 larvae on artificial diet, read-out: control in at least one of the three categories (mortality, anti-feeding or growth inhibition)
Procedure: Example B4: Chilo suppressalis (Striped rice stemborer)
24-well microtiter plates with artificial diet were treated with aqueous test solutions prepared from 10′000 ppm DMSO stock solutions by pipetting. After drying, the plates were infested with L2 larvae (6-8 per well). The samples were assessed for mortality, anti-feeding effect, and growth inhibition in comparison to untreated samples 6 days after infestation. Control of Chilo suppressalis by a test sample is given when at least one of the categories mortality, anti-feedant effect, and growth inhibition is higher than the untreated sample.

[3] = tested on: Plutella xylostella (diamondback moth); assay: Example B10: Plutella xylostella (diamondback moth), 96-well artificial diet; conditions: 216 h, application rate of 500 ppm, 9 days after infestation, eggs/L1 larvae
Procedure: Example B10: Plutella xylostella (Diamondback Moth)
96-well microtiter plates containing artificial diet were treated with aqueous test solutions, prepared from 10′000 ppm DMSO stock solutions, by a liquid handling robot. After drying, eggs (˜30 per well) were infested onto a netted lid which was suspended above the diet. The eggs hatch and L1 larvae move down to the diet. The samples were assessed for mortality 9 days after infestation.

[4] = tested on: Spodoptera littoralis (Egyptian cotton leaf worm); assay: Example B7: Spodoptera littoralis (Egyptian cotton leaf worm), sprayed cotton leaf discs, L1 larvae; conditions: foliar, 72 h, application rate of 200 ppm, 3 days after infestation, L1 larvae on cotton leaf discs, read-out: control in at least one of the three categories (mortality, anti-feeding or growth inhibition)
Procedure: Example B7: Spodoptera littoralis (Egyptian Cotton Leaf Worm)
Cotton leaf discs were placed onto agar in 24-well microtiter plates and sprayed with aqueous test solutions prepared from 10′000 ppm DMSO stock solutions. After drying the leaf discs were infested with five L1 larvae. The samples were assessed for mortality, anti-feeding effect, and growth inhibition in comparison to untreated samples 3 days after infestation. Control of Spodoptera littoralis by a test sample is given when at least one of the categories mortality, anti-feedant effect, and growth inhibition is higher than the untreated sample.

[5] = tested on: Plutella xylostella (diamond back moth); assay: Example B5: Plutella xylostella (diamond back moth), artificial diet, 24-well, eggs; conditions: 192 h, application rate of 200 ppm, 8 days after infestation, read-out: control in at least one of the two categories (mortality or growth inhibition)
Procedure: Example B5: Plutella xylostella (Diamond Back Moth)
24-well microtiter plates with artificial diet were treated with aqueous test solutions prepared from 10′000 ppm DMSO stock solutions by pipetting. After drying, Plutella eggs were pipetted through a plastic stencil onto a gel blotting paper and the plate was closed with it. The samples were assessed for mortality and growth inhibition in comparison to untreated samples 8 days after infestation.

[6] = tested on: Myzus persicae (green peach aphid); assay: Example B6: Myzus persicae (green peach aphid), intrinsic activity; conditions: 120 h, test rate of 12 ppm, 5 days after infestation, sucrose solution, infested pea seedlings
Excerpt: Example B6: Myzus persicae (Green Peach Aphid): Intrinsic Activity
Test compounds prepared from 10′000 ppm DMSO stock solutions were applied by pipette into 24-well microtiter plates and mixed with sucrose solution. The plates were closed with a stretched Parafilm. A plastic stencil with 24 holes was placed onto the plate and infested pea seedlings were placed directly on the Parafilm. The infested plate was closed with a gel blotting paper and another plastic stencil and then turned upside down. The samples were assessed for mortality 5 days after infestation.

[7] = tested on: Euschistus heros (neotropical brown stink bug); assay: Example B2: Euschistus heros (neotropical brown stink bug), sprayed soybean leaves, N2 nymphs; conditions: 120 h, application rate of 200 ppm, 5 days after infestation, N2 nymphs on soybean leaves, read-out: control in at least one of the two categories (mortality or growth inhibition)
Procedure: Example B2: Euschistus heros (Neotropical Brown Stink Bug)
Soybean leaves on agar in 24-well microtiter plates were sprayed with aqueous test solutions prepared from 10′000 ppm DMSO stock solutions. After drying the leaves were infested with N2 nymphs. The samples were assessed for mortality and growth inhibition in comparison to untreated samples 5 days after infestation.

[8] = tested on: Spodoptera littoralis (Egyptian cotton leaf worm); assay: Example B8: Spodoptera littoralis (Egyptian cotton leaf worm), uptake by lettuce roots from agar; conditions: 144 h, test rate of 12.5 ppm, 6 days after infestation, compound absorbed by lettuce roots, read-out: control in at least one of the three categories (mortality, anti-feeding, or growth inhibition)
Excerpt: Example B8: Spodoptera littoralis (Egyptian Cotton Leaf Worm)
Test compounds were applied by pipette from 10′000 ppm DMSO stock solutions into 24-well plates and mixed with agar. Lettuce seeds were placed onto the agar and the multi well plate was closed by another plate which contained also agar. After 7 days the compound was absorbed by the roots and the lettuce grew into the lid plate. The lettuce leaves were then cut off into the lid plate. Spodoptera eggs were pipetted through a plastic stencil onto a humid gel blotting paper and the lid plate was closed with it. The samples were assessed for mortality, anti-feedant effect and growth inhibition in comparison to untreated samples 6 days after infestation.

CC(NC(=O)c1cc(OCC(F)(F)F)cc(C(F)(F)F)c1)c1nccnc1-c1ccc(C#N)cn1 (centres unmarked) [Compound P25, N-[1-[3-(5-cyano-2-pyridyl)pyrazin-2-yl]ethyl]-3-(2,2,2-trifluoroethoxy)-5-(trifluoromethyl)benzamide]
≥ 80%: percent control (mortality or growth inhibition) at 200 ppm [1] | control at 200 ppm [2] | mortality at 500 ppm [3] | percent control (mortality, anti-feeding or growth inhibition) at 200 ppm [4] | percent control (mortality or growth inhibition) at 200 ppm [5]

CC(NC(=O)c1cc(Cl)cc(C(F)(F)F)c1)c1nccnc1-c1ccc(OCC(F)(F)F)cn1 (centres unmarked) [Compound P21, 3-chloro-N-[1-[3-[5-(2,2,2-trifluoroethoxy)-2-pyridyl]pyrazin-2-yl]ethyl]-5-(trifluoromethyl)benzamide]
≥ 80%: percent control (mortality or growth inhibition) at 200 ppm [1] | control at 200 ppm [2] | mortality at 500 ppm [3] | percent control (mortality, anti-feeding or growth inhibition) at 200 ppm [4] | percent control (mortality or growth inhibition) at 200 ppm [5]

CC(NC(=O)c1cc(OCC(F)F)cc(C(F)(F)F)c1)c1nccnc1-c1ncc(OC(F)F)cn1 (centres unmarked) [Compound P27, 3-(2,2-difluoroethoxy)-N-[1-[3-[5-(difluoromethoxy)pyrimidin-2-yl]pyrazin-2-yl]ethyl]-5-(trifluoromethyl)benzamide]
≥ 80%: control at 200 ppm [2] | mortality at 500 ppm [3] | percent control (mortality, anti-feeding or growth inhibition) at 200 ppm [4] | percent control (mortality or growth inhibition) at 200 ppm [5] | mortality at 12 ppm [6]

CC(NC(=O)c1cc(Br)cc(C(F)(F)F)c1)c1nccnc1-c1ccc(OCC(F)F)cn1 (centres unmarked) [Compound P19, 3-bromo-N-[1-[3-[5-(2,2-difluoroethoxy)-2-pyridyl]pyrazin-2-yl]ethyl]-5-(trifluoromethyl)benzamide]
≥ 80%: percent control (mortality or growth inhibition) at 200 ppm [1] | control at 200 ppm [2] | mortality at 500 ppm [3] | percent control (mortality, anti-feeding or growth inhibition) at 200 ppm [4] | percent control (mortality or growth inhibition) at 200 ppm [5]

CC(NC(=O)c1cc(OCC(F)(F)F)cc(C(F)(F)F)c1)c1nccnc1-c1ccc(OCC(F)F)cn1 (centres unmarked) [Compound P15, N-[1-[3-[5-(2,2-difluoroethoxy)-2-pyridyl]pyrazin-2-yl]ethyl]-3-(2,2,2-trifluoroethoxy)-5-(trifluoromethyl)benzamide]
≥ 80%: percent control (mortality or growth inhibition) at 200 ppm [1] | control at 200 ppm [2] | mortality at 500 ppm [3] | percent control (mortality, anti-feeding or growth inhibition) at 200 ppm [4] | percent control (mortality or growth inhibition) at 200 ppm [5]

CC(NC(=O)c1cc(OC(F)F)cc(C(F)(F)F)c1)c1nccnc1-c1ccc(OCC(F)F)cn1 (centres unmarked) [Compound P13, N-[1-[3-[5-(2,2-difluoroethoxy)-2-pyridyl]pyrazin-2-yl]ethyl]-3-(difluoromethoxy)-5-(trifluoromethyl)benzamide]
≥ 80%: percent control (mortality or growth inhibition) at 200 ppm [1] | control at 200 ppm [2] | mortality at 500 ppm [3] | percent control (mortality, anti-feeding or growth inhibition) at 200 ppm [4] | percent control (mortality or growth inhibition) at 200 ppm [5]

CC(NC(=O)c1cc(OC(F)F)cc(C(F)(F)F)c1)c1nccnc1-c1ncc(OCC(F)(F)F)cn1 (centres unmarked) [Compound P3, 3-(difluoromethoxy)-N-[1-[3-[5-(2,2,2-trifluoroethoxy)pyrimidin-2-yl]pyrazin-2-yl]ethyl]-5-(trifluoromethyl)benzamide]
≥ 80%: percent control (mortality or growth inhibition) at 200 ppm [1] | control at 200 ppm [2] | percent control (mortality, anti-feeding or growth inhibition) at 200 ppm [4] | percent control (mortality or growth inhibition) at 200 ppm [5] | mortality at 12 ppm [6] | percent control (mortality or growth inhibition) at 200 ppm [7]

CC(NC(=O)c1cc(SC(F)(F)F)cc(C(F)(F)F)c1)c1nccnc1-c1ncc(OCC(F)F)cn1 (centres unmarked) [Compound P29, N-[1-[3-[5-(2,2-difluoroethoxy)pyrimidin-2-yl]pyrazin-2-yl]ethyl]-3-(trifluoromethyl)-5-(trifluoromethylsulfanyl)benzamide]
≥ 80%: percent control (mortality or growth inhibition) at 200 ppm [1] | control at 200 ppm [2] | mortality at 500 ppm [3] | percent control (mortality, anti-feeding or growth inhibition) at 200 ppm [4] | percent control (mortality or growth inhibition) at 200 ppm [5]

CC(NC(=O)c1cc(OCC(F)(F)F)cc(C(F)(F)F)c1)c1nccnc1-c1ncc(OCC(F)(F)F)cn1 (centres unmarked) [Compound P5, 3-(2,2,2-trifluoroethoxy)-N-[1-[3-[5-(2,2,2-trifluoroethoxy)pyrimidin-2-yl]pyrazin-2-yl]ethyl]-5-(trifluoromethyl)benzamide]
≥ 80%: control at 200 ppm [2] | percent control (mortality, anti-feeding or growth inhibition) at 200 ppm [4] | percent control (mortality or growth inhibition) at 200 ppm [5] | percent control (mortality or growth inhibition) at 200 ppm [7]

CC(NC(=O)c1cc(OCC(F)(F)F)cc(C(F)(F)F)c1)c1nccnc1-c1ncc(OC(F)F)cn1 (centres unmarked) [Compound P30, N-[1-[3-[5-(difluoromethoxy)pyrimidin-2-yl]pyrazin-2-yl]ethyl]-3-(2,2,2-trifluoroethoxy)-5-(trifluoromethyl)benzamide]
≥ 80%: percent control (mortality or growth inhibition) at 200 ppm [1] | control at 200 ppm [2] | mortality at 500 ppm [3] | percent control (mortality, anti-feeding or growth inhibition) at 200 ppm [4] | percent control (mortality or growth inhibition) at 200 ppm [5]

CC(NC(=O)c1cc(C(F)(F)F)cc(C(F)(F)F)c1)c1nccnc1-c1ncc(OCC(F)F)cn1 (centres unmarked) [Compound P33, N-[1-[3-[5-(2,2-difluoroethoxy)pyrimidin-2-yl]pyrazin-2-yl]ethyl]-3,5-bis(trifluoromethyl)benzamide]
≥ 80%: percent control (mortality or growth inhibition) at 200 ppm [1] | control at 200 ppm [2] | percent control (mortality, anti-feeding or growth inhibition) at 200 ppm [4] | percent control (mortality or growth inhibition) at 200 ppm [5] | percent control (mortality or growth inhibition) at 200 ppm [7]

CC(NC(=O)c1cc(OCC(F)F)cc(C(F)(F)F)c1)c1nccnc1-c1ncc(OCC(F)(F)F)cn1 (centres unmarked) [Compound P1, 3-(2,2-difluoroethoxy)-N-[1-[3-[5-(2,2,2-trifluoroethoxy)pyrimidin-2-yl]pyrazin-2-yl]ethyl]-5-(trifluoromethyl)benzamide]
≥ 80%: control at 200 ppm [2] | percent control (mortality, anti-feeding or growth inhibition) at 200 ppm [4] | percent control (mortality or growth inhibition) at 200 ppm [5] | percent control (mortality or growth inhibition) at 200 ppm [7]

C[C@H](NC(=O)c1cc(C(F)(F)F)cc(C(F)(F)F)c1)c1nccnc1-c1ccc(C#N)cn1 [Compound P34, N-[(1S)-1-[3-(5-cyano-2-pyridyl)pyrazin-2-yl]ethyl]-3,5-bis(trifluoromethyl)benzamide]
≥ 80%: percent control (mortality or growth inhibition) at 200 ppm [1] | control at 200 ppm [2] | percent control (mortality, anti-feeding or growth inhibition) at 12.5 ppm [8] | mortality at 500 ppm [3] | percent control (mortality, anti-feeding or growth inhibition) at 200 ppm [4] | percent control (mortality or growth inhibition) at 200 ppm [5]
